Measurements taken from ChEMBL document CHEMBL5625277, “Systematical mutational analysis of teriparatide on anti-osteoporosis activity by alanine scanning” (Bioorg Med Chem Lett, 2024).
Active and inactive are the calls of the source. The calls are words filed in the database; no cut-off is given here.

How the values were obtained:
Calvarial osteoblast = assay: Induction of mineralization in osteoblast assessed as formation of calcium nodules at 50 to 100 nM measured after 14 days by Alizarin Red S staining based analysis; assay type: functional, cell-based; settings: dose 50-100 nM, time 14.0 day
[1] = Cytotoxicity in pre-osteoblasts (unknown origin) assessed as cell death upto 5 uM by CCK8 assay; assay type: toxicity, cell-based; settings: pre-osteoblast
Skull progenitor cell = assay: Induction of osteoblast differentiation in mouse skull progenitor cells assessed as increase in purple-stained ALP-positive cells at 100 nM measured after 4 days by imaging analysis; assay type: functional, cell-based; settings: time 4.0 day

Compound	Activity (Calvarial osteoblast)	Activity [1]	Activity (Skull progenitor cell)
CC[C@H](C)[C@H](NC(=O)[C@H](CCC(=O)O)NC(=O)[C@H](CO)NC(=O)[C@@H](NC(=O)[C@H](CO)NC(C)=O)C(C)C)C(=O)N[C@@H](CCC(N)=O)C(=O)N[C@@H](CC(C)C)C(=O)N[C@@H](CCSC)C(=O)N[C@@H](Cc1cnc[nH]1)C(=O)N[C@@H](CC(N)=O)C(=O)N[C@@H](CC(C)C)C(=O)NCC(=O)N[C@@H](CCCCN)C(=O)N[C@@H](Cc1cnc[nH]1)C(=O)N[C@@H](CC(C)C)C(=O)N[C@@H](CC(N)=O)C(=O)N[C@@H](CO)C(=O)N[C@@H](CCSC)C(=O)N[C@@H](CCC(=O)O)C(=O)N[C@@H](CCCNC(=N)N)C(=O)N[C@H](C(=O)N[C@@H](CCC(=O)O)C(=O)N[C@@H](Cc1c[nH]c2ccccc12)C(=O)N[C@@H](CC(C)C)C(=O)N[C@@H](CCCNC(=N)N)C(=O)N[C@@H](CCCCN)C(=O)N[C@@H](CCCCN)C(=O)N[C@@H](CC(C)C)C(=O)N[C@@H](CCC(N)=O)C(=O)N[C@@H](C)C(=O)N[C@H](C(=O)N[C@@H](Cc1cnc[nH]1)C(=O)N[C@@H](CC(N)=O)C(=O)N[C@@H](Cc1ccccc1)C(N)=O)C(C)C)C(C)C	Active	Non-Toxic	Active
CC[C@H](C)[C@H](NC(=O)[C@H](CCC(=O)O)NC(=O)[C@H](CO)NC(=O)[C@@H](NC(=O)[C@H](CO)NC(C)=O)C(C)C)C(=O)N[C@@H](CCC(N)=O)C(=O)N[C@@H](CC(C)C)C(=O)N[C@@H](CCSC)C(=O)N[C@@H](Cc1cnc[nH]1)C(=O)N[C@@H](CC(N)=O)C(=O)N[C@@H](CC(C)C)C(=O)NCC(=O)N[C@@H](C)C(=O)N[C@@H](Cc1cnc[nH]1)C(=O)N[C@@H](CC(C)C)C(=O)N[C@@H](CC(N)=O)C(=O)N[C@@H](CO)C(=O)N[C@@H](CCSC)C(=O)N[C@@H](CCC(=O)O)C(=O)N[C@@H](CCCNC(=N)N)C(=O)N[C@H](C(=O)N[C@@H](CCC(=O)O)C(=O)N[C@@H](Cc1c[nH]c2ccccc12)C(=O)N[C@@H](CC(C)C)C(=O)N[C@@H](CCCNC(=N)N)C(=O)N[C@@H](CCCCN)C(=O)N[C@@H](CCCCN)C(=O)N[C@@H](CC(C)C)C(=O)N[C@@H](CCC(N)=O)C(=O)N[C@@H](CC(=O)O)C(=O)N[C@H](C(=O)N[C@@H](Cc1cnc[nH]1)C(=O)N[C@@H](CC(N)=O)C(=O)N[C@@H](Cc1ccccc1)C(N)=O)C(C)C)C(C)C	Active	Non-Toxic	Active
